In patent EP4711356A1, “TETRAHYDROCARBAZOLE DERIVATIVE, PHARMACEUTICAL COMPOSITION, AND USE THEREOF” (Nain Biotech (Hangzhou) Co., Ltd., priority 2023, dated 2024):
pIC50: −log10 of the molar value.

Tested on: HeLa cells
Test: Cell-based pharmacodynamic assay (CellTiter-Glo proliferation inhibition), HeLa
Conditions: human cervical cancer HeLa cells; 72 hours incubation; CellTiter-Glo luminescence; read-out: IC50 against HeLa cells
Procedure: Complete media such as RPMI 1640 (Gibco, A1049101), EMEM (ATCC, 30-2003), DMEM (Gibco, C11995500CP), McCoy's 5A (Gibco, 16600082), and F-12K (ATCC, 30-2004) were prepared by supplementing with varying concentrations of FBS (Biological Industries, 04-002-1A) and 1% Penicillin-Streptomycin (Gibco, 15140122) and was thoroughly mixed. Tumor cell lines including HeLa (ATCC, CCL-2; EMEM + 10% FBS), TOV-21G (Cobioer, CBP60292; 1:1 mixture of MCDB 105 and Medium 199 + 15% FBS), OVCAR-3 (ATCC, HTB-161; RPMI 1640 + 20% FBS + 0.01 mg/ml bovine insulin), SK-OV-3 (ATCC, HTB-77; McCoy's 5A + 10% FBS), A2780 (Cobioer, CBP60283; RPMI 1640 + 10% FBS), OC316 (Cobioer, CBP60620; RPMI 1640 + 10% FBS), HuH-7 (Cobioer, CBP60202; DMEM + 10% FBS), SNU-398 (ATCC, CRL-2233; RPMI 1640 + 10% FBS), NCI-H2286 (ATCC, CRL-5938; RPMI 1640 + 5% FBS), NCI-H82 (ATCC, HTB-175; RPMI 1640 + 10% FBS), A549 (ATCC, CCL-185; F-12K + 10% FBS), SK-MEL-3 (ATCC, HTB-69; McCoy's 5A + 15% FBS), PSN-1 (Cobioer, CBP61215; RPMI 1640 + 10% FBS), LoVo (ATCC, CCL-229; F-12K + 10% FBS), DLD-1 (ATCC, CCL-221; RPMI 1640 + 10% FBS), HCT-15 (ATCC, CCL-225; RPMI 1640 + 10% FBS), A498 (ATCC, HTB-44; EMEM + 10% FBS), LNCaP (ATCC, CRL-1740; RPMI 1640 + 10% FBS), SNU-1 (ATCC, CRL-5971; RPMI 1640 + 10% FBS), SCC-9 (Cobioer, CBP60428; DMEM/F12 (1:1) + 10% FBS + 0.5 mM sodium pyruvate + 400 ng/ml hydrocortisone), SU-DHL-5 (ATCC, CRL-2958; RPMI 1640 + 10% FBS), Toledo (ATCC, CRL-2631; RPMI 1640 + 10% FBS), and SJCRH30 (ATCC, CRL-2061; RPMI 1640 + 10% FBS) were thawed. Cells were passaged approximately twice, and those in good growth condition (typically passages 4-6) were selected for experiments. The medium was aspirated, and the cells were washed once with 0.25% trypsin (Invitrogen, 25200-072). The waste liquid was discarded, and 3 mL of fresh trypsin was added to the culture flask for digestion. When the cells began to detach, 9 mL of complete medium was added to neutralize the trypsin digestion, and the mixture was gently mixed. The cell suspension was transferred to a centrifuge tube using a pipette and centrifuged at 1000 rpm for 5 minutes. The supernatant was discarded, and 5 mL of medium was added to the centrifuge tube to gently resuspend the cells evenly. The cell concentration was adjusted to 1×10^4/mL-3×10^4/mL using a cell counter (Beckman Coulter, Vi-cellTM XR). The cell suspension was added to a 96-well plate (Corning, 3903) at 100 µL/well. The plate was labeled with details such as cell name, seeding density, and date, and then placed in a CO2 incubator (Thermo, Thermo 3111) overnight. Test compounds were prepared as 20 mM stock solutions in DMSO (Sigma, D4540-1L) and added to the corresponding cell wells using an HPD300 automated dispenser according to the designed layout. The plates were incubated in a 37°C, 5% CO2 incubator for 72 hours. CellTiter-Glo Buffer was thawed at room temperature. The lyophilized CellTiter-Glo substrate was equilibrated to room temperature. The CellTiter-Glo Buffer was added to the CellTiter-Glo substrate and thoroughly mixed. The cell plates were removed and equilibrated to room temperature, and 50 µL of the mixed CellTiter-Glo reagent was added to each well. The plates were protected from light and shaken for 10 minutes, followed by incubation for 10 minutes. The plates were placed in an Enspire reader (luminescence measurement time: 0.5 s) to record luminescence results. The inhibition rate was calculated using the following formula: Inhibition rate (%) = (1 - (RLU_compound - RLU_blank) / (RLU_DMSO - RLU_blank)) × 100%. Dose-response curves were plotted using XLFit to calculate IC50 values. A four-parameter model was used: [fit = (A + ((B - A) / (1 + ((C/x) ^ D)))]. The test results for HeLa cells are shown in Table 1. Table 1: IC50 values of some test compounds against human cervical cancer HeLa cells

| SMILES | pIC50 |
| --- | --- |
| O=C1CCCc2c1[nH]c1cccc(C(=O)OC3CCNC3)c21 (racemic) [Compound B27] | ≥ 6.30 |
| C#CC(C)OC(=O)c1cccc2[nH]c3c(c12)CCCC3=O (racemic) [Compound B36] | ≥ 6.70 |
| CC(OC(=O)c1cccc2[nH]c3c(c12)CCCC3=O)C(=O)N(C)C (racemic) [Compound B37] | ≥ 6.00 |
| CC(OC(=O)c1cccc2[nH]c3c(c12)CCCC3=O)C(F)(F)F (racemic) [Compound B44] | ≥ 6.70 |
| CCCCNC1CCc2c([nH]c3cccc(C(=O)OCC)c23)C1=O (racemic) [Compound B103] | ≥ 6.70 |
| CCC#CC(C)OC(=O)c1cccc2[nH]c3c(c12)CCCC3=O (racemic) [Compound B110] | ≥ 6.70 |
| C#CCOCC(C)OC(=O)c1cccc2[nH]c3c(c12)CCCC3=O (racemic) [Compound B111] | ≥ 6.70 |
| C#CCC(C)OC(=O)c1cccc2[nH]c3c(c12)CCCC3=O (racemic) [Compound B114] | ≥ 6.70 |
| CCOC(=O)c1cccc2[nH]c3c(c12)CCC(NCCO)C3=O (racemic) [Compound B131] | ≥ 6.30 |
| CCOC(=O)c1cccc2[nH]c3c(c12)CCC(N1CCC1)C3=O (racemic) [Compound B132] | ≥ 6.30 |
| O=C1CCCc2c1[nH]c1cccc(C(=O)OC3CCC34CC4)c21 (racemic) [Compound B136] | ≥ 6.70 |
| O=C1CCCc2c1[nH]c1cccc(C(=O)OC3CCOC3)c21 (racemic) [Compound B137] | ≥ 6.70 |
| CCC(OC(=O)c1cccc2[nH]c3c(c12)CCCC3=O)C1CC1 (racemic) [Compound B138] | ≥ 6.30 |
| CC(O)CCCOC(=O)c1cccc2[nH]c3c(c12)CCCC3=O (racemic) [Compound B142] | ≥ 6.70 |
| CCOC(=O)c1cccc2c1c1c(n2C(=O)C2(C)CC2(F)F)C(=O)CCC1 (racemic) [Compound C28] | ≥ 6.70 |
| CCOC(=O)c1cccc2c1c1c(n2C(=O)C2CCCCN2C)C(=O)CCC1 (racemic) [Compound C33] | ≥ 6.70 |
| CCOC(=O)c1cccc2c1c1c(n2C(=O)C2CCOC(C)(C)C2)C(=O)CCC1 (racemic) [Compound C37] | ≥ 6.70 |
| CCOC(=O)c1cccc2c1c1c(n2C(=O)C(CO)c2ccccc2)C(=O)CCC1 (racemic) [Compound C48] | ≥ 6.70 |
| Cc1ccc2[nH]c3c(c2c1)CCCC3=NCC(O)CO (racemic) [Compound E01] | ≥ 6.30 |
| Cc1ccc2[nH]c3c(c2c1)CCCC3=NC(CO)C(C)C (racemic) [Compound E02] | ≥ 6.30 |

| SMILES | pIC50 |
| --- | --- |
| CCC(CO)N=C1CCCc2c1[nH]c1cccc(C(=O)OC)c21 (racemic) [Compound E58] | ≥ 6.70 |
| COC(=O)c1cccc2[nH]c3c(c12)CCCC3=NCC(O)CO (racemic) [Compound E59] | ≥ 6.70 |
| COC(=O)c1cccc2[nH]c3c(c12)CCCC3=NC(CO)C(C)C (racemic) [Compound E60] | ≥ 6.70 |
| Cc1ccc2[nH]c3c(c2c1)C(C)CCC3=NCCO (single isomer, unassigned) [Compound E41] | ≥ 6.30 |
| Cc1ccc2[nH]c3c(c2n1)CCCC3=O [Compound B01] | ≥ 6.70 |
| COc1ccc2[nH]c3c(c2n1)CCCC3=O [Compound B09] | ≥ 6.70 |
| COC(=O)c1cccc2[nH]c3c(c12)CCCC3=O [Compound B10] | ≥ 6.70 |
| Cc1ccc2[nH]c3c(c2c1)CCC1(CC1)C3=O [Compound B14] | ≤ 5.30 |
| [2H]C([2H])([2H])c1ccc2[nH]c3c(c2c1)CCCC3=O [Compound B15] | ≥ 6.70 |
| CC(C)OC(=O)c1cccc2[nH]c3c(c12)CCCC3=O [Compound B17] | ≥ 6.70 |
| COC(=O)c1ccc(F)c2[nH]c3c(c12)CCCC3=O [Compound B18] | ≥ 6.30 |
| O=C1CCCc2c1[nH]c1cccc(N3CCn4cnnc4C3)c21 [Compound B19] | ≥ 6.70 |
| CC1(C)CCN(c2cccc3[nH]c4c(c23)CCCC4=O)C1 [Compound B23] | ≥ 6.70 |
| CC(C)(O)C1CN(c2cccc3[nH]c4c(c23)CCCC4=O)C1 [Compound B24] | ≥ 6.70 |
| CCCCOC(=O)c1cccc2[nH]c3c(c12)CCCC3=O [Compound B25] | ≥ 6.70 |
| O=C1CCCc2c1[nH]c1cccc(C(=O)OC3CC3)c21 [Compound B26] | ≥ 6.70 |
| O=C1CCCc2c1[nH]c1cccc(C(=O)OC3CCOCC3)c21 [Compound B30] | ≥ 6.70 |
| O=C1CCCc2c1[nH]c1cccc(C(=O)OCCO)c21 [Compound B31] | ≥ 6.70 |
| CCC(=O)Oc1cccc2[nH]c3c(c12)CCCC3=O [Compound B32] | ≥ 6.30 |
| CC(C)C(=O)Oc1cccc2[nH]c3c(c12)CCCC3=O [Compound B33] | ≥ 6.70 |

| SMILES | pIC50 |
| --- | --- |
| O=C1CCCc2c1[nH]c1cccc(C(=O)OCc3ccccc3)c21 [Compound B34] | ≥ 6.30 |
| COCCOC(=O)c1cccc2[nH]c3c(c12)CCCC3=O [Compound B38] | ≥ 6.70 |
| O=C1CCCc2c1[nH]c1cccc(C(=O)Oc3ccccc3)c21 [Compound B39] | ≥ 6.30 |
| CC(C)(C)COC(=O)c1cccc2[nH]c3c(c12)CCCC3=O [Compound B40] | ≥ 6.70 |
| O=C1CCCc2c1[nH]c1cccc(C(=O)OCC3CC3)c21 [Compound B41] | ≥ 6.70 |
| O=C1CCCc2c1[nH]c1cccc(C(=O)OC(CF)CF)c21 [Compound B42] | ≥ 6.70 |
| O=C1CCCc2c1[nH]c1cccc(C(=O)OCc3ccc(F)cc3)c21 [Compound B43] | ≥ 6.30 |
| O=C1CCCc2c1[nH]c1cccc(C(=O)OCCC(F)(F)F)c21 [Compound B45] | ≥ 6.70 |
| O=C1CCCc2c1[nH]c1cccc(C(=O)OCC(F)(F)F)c21 [Compound B46] | ≥ 6.70 |
| O=C1CCCc2c1[nH]c1cccc(-c3ccccc3)c21 [Compound B48] | ≥ 6.30 |
| O=C1CCCc2c1[nH]c1cccc(-c3cnc4[nH]ncc4c3)c21 [Compound B50] | ≥ 6.70 |
| COC(=O)c1cccc2[nH]c3c(c12)CCC3=O [Compound B51] | ≥ 6.70 |
| CC(C)(C)OC(=O)c1cccc2[nH]c3c(c12)CCCC3=O [Compound B55] | ≥ 6.70 |
| O=C1CCCc2c1[nH]c1cccc(CO)c21 [Compound B56] | ≥ 6.70 |
| O=C1CCCc2c1[nH]c1cccc(-c3cn[nH]c3)c21 [Compound B58] | ≥ 6.70 |
| N#Cc1cccc2[nH]c3c(c12)CCCC3=O [Compound B61] | ≥ 6.70 |
| O=C1CCCc2c1[nH]c1cccc(C3=CCOCC3)c21 [Compound B62] | ≥ 6.70 |
| O=C1CCCc2c1[nH]c1cccc(N3CCOCC3)c21 [Compound B63] | ≥ 6.70 |
| CN(C)c1cccc2[nH]c3c(c12)CCCC3=O [Compound B65] | ≥ 6.70 |
| O=C1CCCc2c1[nH]c1cccc(N3CCCC3)c21 [Compound B66] | ≥ 6.70 |
